Here are results for 5 molecules from ChEMBL document CHEMBL1144653, “The thioesterase domain from the pimaricin and erythromycin biosynthetic pathways can catalyze hydrolysis of simple thioester substrates” (Bioorg Med Chem Lett, 2007).

In assay [1] the test system is Streptomyces natalensis. The assay is described as follows: Ratio of Kcat to Km in pimaricin thioesterase expressed in Escherichia coli.
The subject of assay [2] is Saccharopolyspora erythraea. The experiment in a line: Ratio of Kcat to Km in 6-deoxyerythronolide B polyketide synthase thioesterase expressed in Escherichia coli.

For `CCCC(C)C(=O)SCCNC(C)=O` (stereo not drawn), the kcat/Km (usually the turnover number divided by the Michaelis constant) in assay [1] stood at 0.24 M⁻¹ s⁻¹; in assay [2], 0.17 M⁻¹ s⁻¹.

For the molecule `CCC(=O)C(C)C(=O)SCCNC(C)=O` (stereo not drawn), the catalytic efficiency (kcat/Km) in assay [2] was 4.2 M⁻¹ s⁻¹.

`CC/C=C(\C)C(=O)SCCNC(C)=O`: in assay [1], the kcat/Km is 1.3 M⁻¹ s⁻¹.

Consider `CC[C@@H](O)[C@H](C)C(=O)SCCNC(C)=O`, for which the kcat/Km came to 0.04 M⁻¹ s⁻¹ in assay [1] and 0.47 M⁻¹ s⁻¹ in assay [2].

With `CC[C@H](O)[C@@H](C)C(=O)SCCNC(C)=O`, the specificity constant (kcat/Km) amounted to 0.02 M⁻¹ s⁻¹ in assay [1] and 3.6 M⁻¹ s⁻¹ in assay [2].
